Results on ten compounds are retold here after PubChem BioAssay (NCI).

Each structure is given as a SMILES string.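 In this assay, cells in 96-well plates receive the compound at five concentrations for 48 hours. Endpoints are linearly interpolated between the surrounding concentrations. The concentration for 50% growth inhibition is given as GI50. TGI: concentration producing complete growth inhibition.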

Some test systems named below: UO-31 renal; M14 melanoma; COLO 205 colon; SK-MEL-5 melanoma; UACC-62 melanoma; MOLT-4 leukemia; RXF 393 renal; TK-10 renal; MDA-MB-435; EKVX NSCLC.
Common to all, as to assay: NCI-60 cell line screen, 48 h

Turning to `CCC(C)[C@H](NC(=O)Nc1cc(C(F)(F)F)cc(C(F)(F)F)c1)C(=O)N[C@@H](Cc1cn(C)cn1)C(=O)OC` (stereo partly drawn), the GI50 is 1.52 µM in the assay with UO-31 renal; 1.11 µM in the assay on M14 melanoma; 1.4 µM in the assay on COLO 205 colon; 0.59 µM in the assay with SK-MEL-5 melanoma; 1.11 µM in the assay on UACC-62 melanoma; 0.873 µM in the assay with MOLT-4 leukemia. Also, the GI50 was 0.523 µM in the assay with RXF 393 renal, 3.65 µM in the assay on TK-10 renal and 0.825 µM with MDA-MB-435. The TGI in the assay on UO-31 renal came to 2.31 µM; in the assay on M14 melanoma, 1.98 µM; with COLO 205 colon it was 1.89 µM; in the assay with SK-MEL-5 melanoma it was 1.27 µM; in the assay on UACC-62 melanoma, 1.86 µM; in the assay with MOLT-4 leukemia, 2.24 µM. In addition, the TGI in the assay with RXF 393 renal turned out to be 0.98 µM; in the assay on MDA-MB-435, 1.85 µM.

In the case of `CNC(=O)c1c(NC(=O)c2ccc(C(C)(C)C)cc2)sc2c(CN(C)C)c(O)ccc12`, the GI50 was 1.49 µM in the assay with UO-31 renal; 1.74 µM with M14 melanoma; 2.1 µM in the assay on COLO 205 colon; 1.81 µM with SK-MEL-5 melanoma; 1.76 µM in the assay on UACC-62 melanoma; 1.28 µM in the assay on MOLT-4 leukemia. The figures for the GI50 with RXF 393 renal, with TK-10 renal and with MDA-MB-435 were 1.67 µM, 1.94 µM and 1.8 µM, respectively. Further, the TGI is 2.89 µM in the assay on UO-31 renal; 3.54 µM in the assay on M14 melanoma; 4.3 µM in the assay with COLO 205 colon; 3.25 µM with SK-MEL-5 melanoma; 3.24 µM with UACC-62 melanoma; 3.73 µM in the assay on MOLT-4 leukemia. Also, the TGI came to 3.33 µM with RXF 393 renal, 3.94 µM with TK-10 renal and 3.34 µM in the assay on MDA-MB-435.

In the case of `NC(=O)c1cc([N+](=O)[O-])c(Cl)c([N+](=O)[O-])c1Cl`, the GI50 with UO-31 renal is 1.58 µM; in the assay on COLO 205 colon, 0.369 µM; in the assay with SK-MEL-5 melanoma, 1.71 µM; in the assay with UACC-62 melanoma, 1.39 µM; in the assay on RXF 393 renal, 1.15 µM; with TK-10 renal, 1.61 µM. The GI50 in the assay with EKVX NSCLC is 2.08 µM; in the assay with MDA-MB-435, 1.93 µM. In addition, the TGI worked out at 3.48 µM with UO-31 renal; 1.47 µM in the assay on COLO 205 colon; 3.11 µM with SK-MEL-5 melanoma; 2.85 µM with UACC-62 melanoma; 2.39 µM in the assay with RXF 393 renal; 2.99 µM with TK-10 renal. Moreover, the TGI in the assay with EKVX NSCLC was 4.85 µM; in the assay with MDA-MB-435, 3.73 µM.

In the case of `O=C(CCCN1CCC(O)(c2ccc(Cl)cc2)CC1)c1ccc(F)cc1`, the TGI in the assay with UO-31 renal was 45.8 µM; in the assay on M14 melanoma, 34.6 µM; with COLO 205 colon it was 43.2 µM; in the assay on SK-MEL-5 melanoma, 29.7 µM; in the assay with UACC-62 melanoma, 21.4 µM; in the assay with MOLT-4 leukemia, > 100 µM. Moreover, the TGI with TK-10 renal was > 100 µM; in the assay on EKVX NSCLC, > 100 µM; with MDA-MB-435, 33.7 µM.

Regarding `C[N+](C)(C)CC(=O)N/N=C(/C(=O)Nc1ccc(Br)cc1)C1C(=O)NC(=O)NC1=O`, the TGI in the assay on UO-31 renal, with M14 melanoma, in the assay with COLO 205 colon, with SK-MEL-5 melanoma, with UACC-62 melanoma and in the assay on MOLT-4 leukemia was > 100 µM each time. Besides, the TGI with RXF 393 renal, in the assay on TK-10 renal and in the assay with EKVX NSCLC was > 100 µM in each case.

As to `COc1cc(/C=C/C(=O)/C=C/c2ccc(-n3ccnc3C)cc2)ccc1O`, the GI50 in the assay with UO-31 renal was 1.51 µM; with M14 melanoma, 2.25 µM; in the assay with COLO 205 colon it was 3.4 µM; in the assay on SK-MEL-5 melanoma, 3.25 µM; in the assay with UACC-62 melanoma it was 4.49 µM; in the assay with MOLT-4 leukemia, 4.05 µM. For the same compound, the GI50 with RXF 393 renal is 1.66 µM; in the assay with TK-10 renal it was 4.74 µM; in the assay on EKVX NSCLC, 21 µM. Also, the TGI is 3.15 µM in the assay with UO-31 renal; 5.94 µM in the assay with M14 melanoma; 12.1 µM with COLO 205 colon; 11.9 µM in the assay with SK-MEL-5 melanoma; 21.3 µM in the assay on UACC-62 melanoma; > 100 µM in the assay with MOLT-4 leukemia. Besides, the values for the TGI with RXF 393 renal, with TK-10 renal and in the assay on EKVX NSCLC were 3.18 µM, 90.4 µM and 99 µM, respectively.

Regarding `COc1ccc2c(c1)[nH]c(=O)c1c3cccc(F)c3cn21`, the GI50 was 0.0596 µM in the assay on UO-31 renal; 0.0463 µM in the assay on M14 melanoma; 0.0388 µM in the assay with COLO 205 colon; 0.0449 µM in the assay on SK-MEL-5 melanoma; 0.0379 µM in the assay with UACC-62 melanoma; 0.0425 µM in the assay with MOLT-4 leukemia. For the same compound, the values for the GI50 in the assay with RXF 393 renal, with TK-10 renal and in the assay on EKVX NSCLC were 0.0375 µM, 9.55 µM and 1.27 µM, respectively. The TGI in the assay with UO-31 renal is > 70.6 µM; with M14 melanoma, > 100 µM; in the assay on COLO 205 colon it was 1.11 µM; in the assay with SK-MEL-5 melanoma, > 100 µM; in the assay with UACC-62 melanoma, > 100 µM; with MOLT-4 leukemia it was 14.6 µM. Besides, the TGI in the assay on RXF 393 renal is 34.1 µM; with TK-10 renal, > 100 µM; with EKVX NSCLC, > 100 µM.

Turning to `Cc1ccc(/C=N/Nc2nc(Nc3ccccc3)nc(-n3nc(C)cc3C)n2)cc1`, the GI50 is 4.09 µM in the assay on UO-31 renal; 2.47 µM in the assay on M14 melanoma; 3.6 µM in the assay with COLO 205 colon; 1.77 µM in the assay with SK-MEL-5 melanoma; 4.44 µM with UACC-62 melanoma; 2.4 µM with MOLT-4 leukemia. Also, the GI50 in the assay on TK-10 renal is 3.52 µM; in the assay with EKVX NSCLC it was 3 µM; with MDA-MB-435, 4.84 µM. For the same compound, the TGI in the assay with UO-31 renal was found to be 19.7 µM; with M14 melanoma, 10.8 µM; with COLO 205 colon it was 13.4 µM; with SK-MEL-5 melanoma it was 7.44 µM; in the assay with UACC-62 melanoma, 24.2 µM; in the assay on MOLT-4 leukemia it was 8.53 µM. In addition, the TGI in the assay with TK-10 renal was determined as 22.9 µM; in the assay on EKVX NSCLC, 31.5 µM; with MDA-MB-435, 37.6 µM.

Turning to `CCOP(=O)(OCC)C1CCCOC1=O` (stereo not drawn), the TGI with UO-31 renal, in the assay on M14 melanoma, in the assay on COLO 205 colon, in the assay with SK-MEL-5 melanoma, in the assay on UACC-62 melanoma and in the assay on MOLT-4 leukemia was > 100 µM in each case. The TGI in the assay with RXF 393 renal, in the assay on TK-10 renal and with EKVX NSCLC was > 100 µM each time.

`CCc1ccc(CCC(=O)Nc2ncc(Cc3ccc(Cl)cc3)s2)o1`: the GI50 in the assay on UO-31 renal is 0.65 µM; with M14 melanoma it was 0.271 µM; in the assay with SK-MEL-5 melanoma, 0.377 µM; with UACC-62 melanoma, 0.491 µM; in the assay with MOLT-4 leukemia, 0.53 µM; in the assay on RXF 393 renal, 0.226 µM. Further, the GI50 in the assay with EKVX NSCLC was 0.527 µM; with MDA-MB-435 it was 0.147 µM. In addition, the TGI was > 100 µM in the assay on UO-31 renal; > 100 µM with SK-MEL-5 melanoma; > 100 µM with UACC-62 melanoma; > 100 µM with MOLT-4 leukemia; 0.675 µM in the assay on RXF 393 renal; > 100 µM in the assay on TK-10 renal. For the same compound, the TGI with EKVX NSCLC is > 100 µM; in the assay with MDA-MB-435, 0.366 µM.
